“Also recorded” adds a separate entry of the source.
Columns and labels:
lamin B = lamin B staining in in situ nuclear matrix preparations; format: cell-based; settings: nuclear matrix prepared in situ, exposure to DTT
Experimental: (§1) Immunofluorescence, electronic microscopy and antibodies were previously described^15. In situ nuclear matrix preparations were prepared as described^1. Confocal analyses were performed on a LSM510 Meta laser microscope (Carl Zeiss MicroImaging, Inc.) with a plan apochromat 63X N.A.1.4 oil immersion objective and increased resolution images were obtained with deconvolution software (Autodeblur, Image Quant) using blind iterative algorithms.
The mouse anti-GFP antibody was from Roche Applied Science; Goat polyclonal anti-Lamin B (M20), rabbit polyclonal anti-RXRa (D20) and anti-Daxx (M-112) were from Santa Cruz Biotechnology. Rabbit polyclonal anti-Daxx from G. Grosveld was used for Western blot analysis. Anti SUMO-1 (mouse monoclonal anti GMP-1 antibody) and Rabbit polyclonal anti-SUMO-2/3 antibodies were from Zymed Laboratories. Rabbit polyclonal anti-RARA115 was a kind gift of Pierre Chambon. […] Fluorescence was quantified with ImageJ software.
(§2) Intermolecular disulfide bonds were previously implicated in stabilization of the nuclear matrix. […] We then compared total and nuclear matrix extracts from transiently transfected CHO cells under non-reducing conditions and observed that the matrix fraction was dramatically enriched in covalent PML dimers.
The matrix-associated PML fraction is hypersumoylated. […]

PML NBs = biological target: T1, PML NBs (Homo sapiens, UniProt P29590); assay: PML NB labelling in in situ nuclear matrix preparations (immunofluorescence); format: cell-based; settings: nuclear matrix prepared in situ, exposure to DTT
T1 construct: endogenous in cells
T1 sequence (P29590 1-882): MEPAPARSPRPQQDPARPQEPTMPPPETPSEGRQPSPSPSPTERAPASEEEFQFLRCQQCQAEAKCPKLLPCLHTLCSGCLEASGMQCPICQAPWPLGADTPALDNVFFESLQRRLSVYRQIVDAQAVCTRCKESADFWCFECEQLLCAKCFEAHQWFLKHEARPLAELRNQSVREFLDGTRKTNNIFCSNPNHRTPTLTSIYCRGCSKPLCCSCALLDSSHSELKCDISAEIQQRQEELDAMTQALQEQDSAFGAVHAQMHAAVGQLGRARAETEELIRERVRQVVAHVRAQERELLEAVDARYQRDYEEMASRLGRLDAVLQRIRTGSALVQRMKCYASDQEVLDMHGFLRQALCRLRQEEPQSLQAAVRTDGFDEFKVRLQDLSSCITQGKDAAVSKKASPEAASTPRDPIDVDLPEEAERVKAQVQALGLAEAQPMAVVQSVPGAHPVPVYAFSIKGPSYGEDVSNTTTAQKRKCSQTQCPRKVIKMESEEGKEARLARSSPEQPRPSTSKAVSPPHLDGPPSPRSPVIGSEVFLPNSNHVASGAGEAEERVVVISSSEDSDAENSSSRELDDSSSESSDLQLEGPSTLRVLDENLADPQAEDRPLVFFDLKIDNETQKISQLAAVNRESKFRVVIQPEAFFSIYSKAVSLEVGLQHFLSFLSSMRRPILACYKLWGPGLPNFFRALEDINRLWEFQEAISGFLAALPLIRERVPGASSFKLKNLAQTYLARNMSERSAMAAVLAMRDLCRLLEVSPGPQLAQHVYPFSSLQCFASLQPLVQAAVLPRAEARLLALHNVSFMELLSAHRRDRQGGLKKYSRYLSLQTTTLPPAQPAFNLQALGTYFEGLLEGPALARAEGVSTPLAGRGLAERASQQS
Experimental: as §1, §2
The matrix-associated PML fraction is hypersumoylated. Conversely, deletion of the coiled-coil of PML abrogates its association to the nuclear matrix, NB formation, and sumoylation. Thus, whereas As2O3 induces PML targeting to the matrix and NB formation independently of sumoylation, matrix association contributes to basal or As2O3-enhanced PML sumoylation. We therefore questioned how As2O3 could promote transfer from soluble diffuse nuclear PML to insoluble, matrix-associated NBs. As2O3 controls protein phosphorylation and ROS production. […]

## O[C@@H](CS)[C@@H](O)CS [DTT]
Lamin B
  lamin B staining: unaffected; also recorded: without affecting lamin-B staining
PML NBs
  PML NB labelling in in situ nuclear matrix: PML NB labelling was lost; also recorded: disrupted endogenous PML NBs
